From US20040255720A1, “Metal graphite material and production method thereof” (AISIN SEIKI KABUSHIKI KAISHA, priority 2003, published 2004)
Read-outs that look alike come from different tables or passages of the source.

Legend:
[1] = Viscosity of binder chemicals; format: physicochemical; settings: 20° C.
[2] = Thermal decomposition (temperature vs weight, FIG. 3); format: physicochemical
Description: FIG. 3 illustrates a graph indicating a relationship between temperature and weigh of glycerin and diglycerin.
In addition, it is preferable that the aforementioned chemicals having only a function as a binder is thermally decomposed in carbon dioxide and water when the molded body of the graphite particles is calcinated at 250-350° C. temperature, then such carbon dioxide and water evaporates into the air, in other word, no residue remains due to the thermal decomposition reaction. In such point of view, it is considered that glycerin and diglycerin as glycerin derivative being thermally decomposed at below 350° C. and having a predetermined viscosity are preferable chemicals. Viscosity of the glycerin is 1500 mPa.s at 20° C., and the thermal decomposition starts at 150° C. and finishes at 250° C. Viscosity of the diglycerin is 120 mPa.s at 20° C., and the thermal decomposition starts at 250° C. and finishes at 320° C. In response to an appropriate thickness of the coating film, glycerin or diglycerin can be diluted with methanol and mixed into the solution of carboxylic acid copper. FIG. 3 indicates relationships between temperature and weight of glycerin and diglycerin. Structure 1 indicates a molecular structure of glycerin, and structure 2 indicates a molecular structure of diglycerin. [drawing 1]

[3] = Solubility of each carboxylic acid in methanol; settings: for solubility in methanol (Max): temperature not given
[4] = Solubilities of each carboxylic acid in water
[5] = 20° C.
[6] = Solubility of each carboxylic acid in 1-propanol; format: physicochemical; settings: 20° C.
[7] = Solubility of each carboxylic acid in 1-butanol; format: physicochemical; settings: 20° C.
[8] = Solubility of carboxylic acid copper in organic solvents; format: physicochemical

OCC(O)CO [glycerin]
Viscosity [1]: 1500 mPa.s | Viscosity ([1]; undiluted): 1500 centipoises | thermal decomposition finishes at (perfectly decomposed into CO2 and H2O) [2]: 250 °C

O=C(O)CCCCCCCC(=O)O [azelaic acid]
solubility in methanol ([3]; 20° C.): 20 wt % dissolved at 20 °C

Cc1ccccc1C(=O)O [0-toluic acid]
solubility in methanol ([3]; 20° C.): 20 wt % dissolved at 20 °C

CC(=O)CC(=O)O [acetoacetic acid]
solubility in water ([4]; 20° C.): 20 wt % dissolved at 20 °C | solubility in methanol ([3]; 20° C.): 20 wt % dissolved at 20 °C

OCC(O)COCC(O)CO (stereo not drawn) [diglycerin]
Viscosity [1]: 120 mPa.s | thermal decomposition finishes at (perfectly decomposed into CO2 and H2O) [2]: 320 °C

O=C(O)c1ccc(C(=O)O)c(C(=O)O)c1C(=O)O [mellophanic acid]
solubility in water ([4]; 20° C.): 20 wt % dissolved at 20 °C

O=C(O)CC(=O)O [malonic acid]
solubility in water ([4]; 30° C.): 63 g is dissolved in saturated g is dissolved in saturated solution 100 g

C=C(C)C(=O)O [methacrylic acid]
solubility in water [4]: Dissolved at arbitrary ratio

O=C(O)C(O)c1ccccc1 (stereo not drawn) [dl mandelic acid]
solubility in water ([4]; 30° C.): 37.5 g is dissolved in water 100 g

[Cl][Cu][Cl] [copper chloride, cupric chloride]
Solubility of copper chloride ([5]; solvent 1-butanol): 15.4 g dissolved in saturated solution 100 g at 20 °C | Solubility of copper chloride ([5]; solvent 1-propanol): 19.7 g dissolved in saturated solution 100 g at 20 °C | Solubility of copper chloride ([5]; solvent methanol): 37 g dissolved in saturated solution 100 g at 20 °C | Solubility of copper chloride ([5]; solvent water): 42.3 g dissolved in saturated solution 100 g at 20 °C

O=C(O)c1ccc(C(=O)O)cc1 [terephthalic acid]
solubility in 1-propanol [6]: 4.4 g is dissolved in saturated g is dissolved in saturated solution 100 cc | solubility in methanol (Max) [3]: Max 16.9 g is dissolved in g is dissolved in methanol 100 g

CCCCCCCCCCCCCC(=O)O [myristic acid]
solubility in 1-butanol [7]: 28.7 g is dissolved in solvent 100 g

CCCCCCCCCCCC(=O)O [dodecanoic acid]
solubility in 1-butanol [7]: 83 g is dissolved in solvent 100 g | solubility in methanol ([3]; 20° C.): 120 g is dissolved in g is dissolved in methanol 100 g

O=C(O)CCCCCCC(=O)O [suberic acid]
solubility in methanol ([3]; 20° C.): 20 wt % dissolved at 20 °C

COc1ccc(C(=O)O)cc1 [anisic acid]
solubility in methanol ([3]; 20° C.): 20 wt % dissolved at 20 °C

CC(=O)CCC(=O)O [levulinic acid]
solubility in water ([4]; 20° C.): 20 wt % dissolved at 20 °C | solubility in methanol ([3]; 20° C.): 20 wt % dissolved at 20 °C

O=C(O)c1cccc(C(=O)O)c1 [isophthalic acid]
solubility in methanol (Max) [3]: Max 1.7 g is dissolved in g is dissolved in methanol 100 g

O=C(O)CCCCCC(=O)O [pimelic acid]
solubility in methanol ([3]; 20° C.): 20 wt % dissolved at 20 °C

O=C(O)c1ccccc1C(=O)O [phthalic acid]
solubility in 1-propanol [6]: 4.3 g is dissolved in saturated g is dissolved in saturated solution 100 cc | solubility in methanol (Max) [3]: Max 16.4 g is dissolved in g is dissolved in methanol 100 g

O=C(O)c1ccccc1O [salicylic acid]
solubility in 1-propanol [6]: 22.3 g is dissolved in saturated g is dissolved in saturated solution 100 cc

C=CCC(C(=O)O)C(=O)O [allylic malonic acid]
solubility in water ([4]; 20° C.): 20 wt % dissolved at 20 °C | solubility in methanol ([3]; 20° C.): 20 wt % dissolved at 20 °C

O=C(O)/C=C\C(=O)O [maleic acid]
solubility in water ([4]; 30° C.): 88 g is dissolved in water 100 g at | solubility in methanol ([3]; 30° C.): 70 g is dissolved in g is dissolved in methanol 100 g

CCCCCCCCCCCC(=O)O.[Cu] [dodecanoic acid copper]
solubility in the methanol compared with butanoic acid copper [8]: lower

O=C(O)c1cc(C(=O)O)cc(C(=O)O)c1 [trimesic acid]
solubility in methanol ([3]; 20° C.): 20 wt % dissolved at 20 °C

O=C(O)CCCC(=O)O [glutaric acid]
solubility in water ([4]; 30° C.): 63 g is dissolved in saturated g is dissolved in saturated solution 100 g | solubility in methanol ([3]; 20° C.): 20 wt % dissolved at 20 °C
